The assay addresses T1, Thyroid hormone receptor alpha (Homo sapiens, UniProt P10827).
T1 sequence (P10827 whole entry): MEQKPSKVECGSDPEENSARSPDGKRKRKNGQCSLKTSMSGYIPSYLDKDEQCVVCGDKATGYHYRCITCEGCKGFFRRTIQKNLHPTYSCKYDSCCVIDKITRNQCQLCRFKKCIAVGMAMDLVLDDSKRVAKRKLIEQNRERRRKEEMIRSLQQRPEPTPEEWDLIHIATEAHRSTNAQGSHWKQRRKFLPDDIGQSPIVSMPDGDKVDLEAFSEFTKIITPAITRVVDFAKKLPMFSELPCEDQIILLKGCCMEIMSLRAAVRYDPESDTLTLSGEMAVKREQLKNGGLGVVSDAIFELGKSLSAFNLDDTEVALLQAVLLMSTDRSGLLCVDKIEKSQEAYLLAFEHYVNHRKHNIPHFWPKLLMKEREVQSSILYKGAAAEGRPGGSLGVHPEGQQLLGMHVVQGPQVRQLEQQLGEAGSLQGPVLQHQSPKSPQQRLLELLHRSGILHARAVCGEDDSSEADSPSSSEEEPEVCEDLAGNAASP
The assay is described as follows: TRalpha-Binding Assay and Thyroid Response Element (TRAFalpha1) Reporter Assay. Particulars: pH 7; 4 °C. The text has this: EC50 is the concentration of compound required to inhibit 50% of T3-induced TRalpha-activation in CHOK1 cells stably transfected with hTRalpha using alkaline phosphatase reporter assay.
On the technique in general: A reporter such as luciferase makes a cellular process visible.

The values below come from BindingDB's records for doi:10.1021/jm060521i (Karo Bio, 2006).

By EC50 is commonly meant the concentration giving half of the maximal effect. Higher therefore signals a need for much substance.

On to `CC(C)c1cc(Oc2c(Br)cc(CCC(=O)O)cc2Br)cc(/C=C/c2ccncc2)c1O` [3-{3,5-dibromo-4-[4-hydroxy-3-(propan-2-yl)-5-[(E)-2-(pyridin-4-yl)ethenyl]phenoxy]phenyl}propanoic acid], for which a half-maximal response (EC50) required 32 nM.
